The target of one test is T1, bCA IV (Bos taurus, UniProt Q95323).
T1 construct: CA IV was isolated from bovine lung microsomes as described by Maren et al; from tissue; host or cells: bovine lung microsomes
T1 sequence (Q95323 19-284): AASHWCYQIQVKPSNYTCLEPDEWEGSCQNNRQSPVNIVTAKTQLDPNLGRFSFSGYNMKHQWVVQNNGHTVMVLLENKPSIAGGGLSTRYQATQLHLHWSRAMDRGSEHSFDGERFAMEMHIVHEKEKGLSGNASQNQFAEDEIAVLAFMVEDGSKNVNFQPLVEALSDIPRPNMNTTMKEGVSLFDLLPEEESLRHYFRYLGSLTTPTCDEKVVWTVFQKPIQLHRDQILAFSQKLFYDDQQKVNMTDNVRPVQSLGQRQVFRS
The experiment in a line: CA esterase activity assay, isozyme bCA IV. The class given is biochemical, bovine. Conditions: read-out: KI bCA IV.

Another test addresses hCA IX (Homo sapiens, UniProt Q16790). The test can be described thus: CA CO2 hydrase activity assay, tumor-associated isozyme hCA IX.
The next test concerns the target T2, hCA I (Homo sapiens, UniProt P00915).
T2 construct: made in house; host or cells: Escherichia coli BL21 (DE3)
The experiment in a line: CA esterase activity assay, isozyme hCA I. The class given is biochemical.

A further test deals with T3, hCA II (Homo sapiens, UniProt P00918).
T3 construct: made in house; host or cells: Escherichia coli BL21 (DE3)
The test can be described thus: CA esterase activity assay, isozyme hCA II. It is filed as biochemical.

Setting [1] is: Table 1, isolated from bovine lung microsomes, esterase assay method.
Where [2] appears, read: read-out: KI hCA IX, Table 1, human cloned isozyme, CO2 hydrase assay method.
[3] abbreviates: Table 1, human cloned isozymes, esterase assay method, read-out: KI hAC I.
[4] abbreviates: Table 2, human (cloned) isozymes, read-out: KI hCA II.
Where [5] appears, read: Table 2, human (cloned) isozymes, read-out: KI hCA I.
The mark [6] stands for this setting: read-out: KI hCA IX, Table 2, catalytic domain of the human, cloned isozyme.
Where [7] appears, read: Table 2, from bovine lung microsomes.

Ki data for 41 compounds are collected here from patent US8628771B2, “CA IX-specific inhibitors” (Institute of Virology Slovak Academy of Sciences, priority 2002, dated 2014).

SMILES strings stand for the structures. Where two headings read alike, the source gives them in different places.

T2 sequence (P00915 whole entry): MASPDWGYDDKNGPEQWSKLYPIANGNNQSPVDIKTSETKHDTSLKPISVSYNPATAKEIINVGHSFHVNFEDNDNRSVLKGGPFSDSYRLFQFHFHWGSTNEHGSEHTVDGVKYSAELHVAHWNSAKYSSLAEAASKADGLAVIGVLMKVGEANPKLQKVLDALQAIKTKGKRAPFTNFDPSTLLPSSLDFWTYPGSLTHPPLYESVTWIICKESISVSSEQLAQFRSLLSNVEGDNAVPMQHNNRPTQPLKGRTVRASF
Procedure for hCA II: Human CA I and CA II cDNAs were expressed in Escherichia coli strain BL21 (DE3) from the plasmids pACA/hCA I and pACA/hCA II described by Lindskog's group [54].
Non-enzymatic hydrolysis rates were always subtracted from the observed rates. […] Inhibitor and enzyme solutions were preincubated together for 10 min at room temperature prior to assay, in order to allow for the formation of the E-I complex. The inhibition constant KI was determined as described in references [44, 76].
Procedure for hCA IX: An SX.18MV-R Applied Photophysics stopped-flow instrument has been used for assaying the CA CO2 hydration activity assays [44]. […] Inhibitor and enzyme solutions were preincubated together for 10 min at room temperature prior to assay, in order to allow for the formation of the E-I complex.

Regarding `CCN[C@H]1CN(CCCOC)S(=O)(=O)c2sc(S(N)(=O)=O)cc21` [BRZ, brinzolamide, reference compound], the inhibition constant (Ki) at bCA IV (setting [1]) was 45 nM.
As for `Nc1ccccc1S(N)(=O)=O` [Compound 1], the Ki at hCA IX (setting [2]) is 33 nM; at bCA IV (setting [1]), 1310 nM.
As to `Nc1ccc(S(N)(=O)=O)cc1` [Compound 3, sulfanilamide], at bCA IV, the Ki turned out to be 3000 nM.
With `NNc1ccc(S(N)(=O)=O)cc1` [Compound 4, 4-hydrazino-benzenesulfonamide], the figures for the Ki on hCA I (setting [3]) and on bCA IV (setting [1]) were 78500 nM and 3220 nM, respectively.
Turning to `NCc1ccc(S(N)(=O)=O)cc1` [Compound 5, homosulfanilamide], at hCA IX (read-out: KI hCA IX), the Ki came to 103 nM.
As for `Nc1ccc(S(N)(=O)=O)cc1F` [Compound 7], the figures for the inhibitory constant (Ki) on hCA IX (setting [2]) and at bCA IV (setting [1]) were 245 nM and 180 nM, respectively.
`Nc1ccc(S(N)(=O)=O)cc1Cl` [Compound 8]: the Ki on hCA IX (setting [2]) amounted to 264 nM.
With `Nc1ccc(S(N)(=O)=O)cc1Br` [Compound 9], the Ki at bCA IV (setting [1]) turned out to be 66 nM.
On to `Nc1ccc(S(N)(=O)=O)cc1I` [Compound 10], for which the Ki came to 6000 nM at hCA I (setting [3]), 285 nM on hCA IX (setting [2]) and 125 nM at bCA IV (setting [1]).
Regarding `Nc1cc(C(F)(F)F)c(S(N)(=O)=O)cc1S(N)(=O)=O` [Compound 11], the Ki at bCA IV (setting [1]) stood at 154 nM.
As to `Cn1nc(S(N)(=O)=O)sc1=N` [Compound 14], the Ki on hCA IX (setting [2]) came to 30 nM.
With `Nc1ccc(S(=O)(=O)Nc2ccc(S(N)(=O)=O)cc2)cc1` [Compound 16], the inhibitory constant (Ki) at hCA IX (setting [2]) came out at 34 nM; at bCA IV (setting [1]), 129 nM.
Regarding `Nc1ccc(S(=O)(=O)Nc2ccccc2S(N)(=O)=O)cc1` [Compound 17], the figures for the Ki on hCA I (setting [3]) and at bCA IV (setting [1]) were 185 nM and 144 nM, respectively.
Regarding `Nc1ccc(S(=O)(=O)NCc2ccc(S(N)(=O)=O)cc2)cc1` [Compound 18], the Ki on bCA IV (setting [1]) is 72 nM.
For `Nc1ccc(S(=O)(=O)NCCc2ccc(S(N)(=O)=O)cc2)cc1` [Compound 19], the Ki at hCA IX (setting [2]) was determined as 24 nM; on bCA IV (setting [1]), 72 nM.
Take `Nc1nccc(Nc2ccc(S(N)(=O)=O)cc2)n1` [Compound 20]: the inhibitory constant (Ki) at hCA IX (read-out: KI against CA IX, text discussion of Tables 1-3) was 16 to 32 nM; on hCA IX (setting [2]), 16 nM; at bCA IV (setting [1]) it was 154 nM.
Regarding `NS(=O)(=O)c1cccc2cccnc12` [Compound 22], the Ki at hCA IX (setting [2]) is 32 nM; on bCA IV (setting [1]), 415 nM.
With `NS(=O)(=O)c1cccc2ccccc12` [Compound 23], the Ki on hCA IX (setting [2]) was 30 nM; at bCA IV (setting [1]), 438 nM.
Take `NS(=O)(=O)c1ccc(CO)cc1` [Compound 24]: the Ki at hCA IX (setting [2]) was 21 nM.
Consider `NS(=O)(=O)c1ccc(CCO)cc1` [Compound 25], for which the Ki at hCA IX (setting [2]) was 22 nM; at bCA IV (setting [1]) it was 450 nM.
In the case of `NS(=O)(=O)c1ccc(C(=O)O)cc1` [Compound 26], the Ki at hCA IX (setting [2]) is 26 nM; on bCA IV (setting [1]), 86 nM.
As to `Cc1cc(C)[n+](-c2ccc(S(N)(=O)=O)cc2)c(C)c1` [Compound 27], the Ki at hCA II (setting [4]) is 150 nM; at hCA I (setting [5]), 10000 nM; at hCA IX, 160 to 450 nM; on hCA IX (setting [6]), 165 nM; at bCA IV (setting [7]), 290 nM.
For `Cc1cc(-c2ccccc2)cc(C)[n+]1-c1ccc(S(N)(=O)=O)cc1` [Compound 28] the same measures were 60 nM, 7000 nM, 6 to 54 nM, 48 nM and 211 nM.
In the case of `CC(C)c1cc(-c2ccccc2)cc(C(C)C)[n+]1-c1ccc(S(N)(=O)=O)cc1` [Compound 31], the Ki at hCA I (setting [5]) stood at 5000 nM; on hCA IX (setting [6]) it was 160 nM; on bCA IV (setting [7]), 90 nM.
As to `CCCc1cc(-c2ccccc2)cc(-c2ccccc2)[n+]1-c1ccc(S(N)(=O)=O)cc1` [Compound 34], the Ki at hCA II (setting [4]) was found to be 580 nM; at hCA I (setting [5]), 140000 nM; at bCA IV (setting [7]), 1480 nM.
For `CC(C)c1cc(-c2ccccc2)cc(-c2ccccc2)[n+]1-c1ccc(S(N)(=O)=O)cc1` [Compound 35] the same measures were 440 nM, 125000 nM and 2100 nM.
As to `CCCCc1cc(-c2ccccc2)cc(-c2ccccc2)[n+]1-c1ccc(S(N)(=O)=O)cc1` [Compound 36], the Ki on hCA II (setting [4]) is 620 nM; at hCA I (setting [5]), 305000 nM; on bCA IV (setting [7]) it was 2160 nM.
In the case of `NS(=O)(=O)c1ccc(-[n+]2c(-c3ccccc3)cc(-c3ccccc3)cc2-c2ccccc2)cc1` [Compound 37], the Ki on hCA II (read-out: KI hCA II) worked out at 510 nM; on hCA I (setting [5]), 290000 nM; at bCA IV (setting [7]), 2500 nM.
`Cc1cc(-c2ccccc2)cc(C)[n+]1Cc1ccc(S(N)(=O)=O)cc1` [Compound 42]: the values for the inhibitory constant (Ki) at hCA I (setting [5]), on hCA IX (setting [6]) and on bCA IV (setting [7]) were 4000 nM, 26 nM and 70 nM, respectively.
As to `CC(C)c1cc(-c2ccccc2)cc(C(C)C)[n+]1Cc1ccc(S(N)(=O)=O)cc1` [Compound 45], the Ki at hCA II (setting [4]) was 61 nM; at hCA I (setting [5]), 12000 nM; at hCA IX (setting [6]) it was 100 nM.
Turning to `CC(C)c1cc(-c2ccccc2)cc(-c2ccccc2)[n+]1Cc1ccc(S(N)(=O)=O)cc1` [Compound 49], the results for the inhibitory constant (Ki) on hCA II (setting [4]), on hCA I (setting [5]) and at hCA IX (setting [6]) were 370 nM, 112000 nM and 80 nM, respectively.
With `CC(C)(C)c1cc(-c2ccccc2)cc(-c2ccccc2)[n+]1Cc1ccc(S(N)(=O)=O)cc1` [Compound 51], the Ki at hCA II (setting [4]) turned out to be 321 nM; on hCA I (setting [5]), 110000 nM; at bCA IV, 1070 nM.
In the case of `Cc1cc(C)[n+](CCc2ccc(S(N)(=O)=O)cc2)c(C)c1.[O-][Cl+3]([O-])([O-])[O-]` [Compound 55], the inhibition constant (Ki) on hCA IX (setting [6]) is 14 nM.
Consider `CC(C)c1cc(-c2ccccc2)cc(C(C)C)[n+]1CCc1ccc(S(N)(=O)=O)cc1` [Compound 61], for which the Ki on hCA II (setting [4]) is 21 nM; at hCA I (setting [5]), 6000 nM; on hCA IX, 64 to 135 nM; on hCA IX (setting [6]), 89 nM.
Consider `Cc1cc(-c2ccccc2)cc(-c2ccccc2)[n+]1CCc1ccc(S(N)(=O)=O)cc1` [Compound 62], for which the Ki was 103 nM at hCA II (setting [4]), 18000 nM on hCA I (setting [5]), 6 to 54 nM on hCA IX and 37 nM on hCA IX (setting [6]).
On to `CCc1cc(-c2ccccc2)cc(-c2ccccc2)[n+]1CCc1ccc(S(N)(=O)=O)cc1` [Compound 63], for which the Ki at hCA II (setting [4]) was determined as 220 nM; at hCA I (setting [5]) it was 40000 nM; at hCA IX (setting [6]) it was 70 nM.
Take `CC(C)c1cc(-c2ccccc2)cc(-c2ccccc2)[n+]1CCc1ccc(S(N)(=O)=O)cc1` [Compound 65]: the Ki at hCA II (setting [4]) was 350 nM; on hCA I (read-out: KI hCA I), 94000 nM; on hCA IX (setting [6]) it was 78 nM.
For `CC(C)(C)c1cc(-c2ccccc2)cc(-c2ccccc2)[n+]1CCc1ccc(S(N)(=O)=O)cc1` [Compound 67], the Ki is 275 nM on hCA II (setting [4]), 92000 nM on hCA I (setting [5]) and 1000 nM at bCA IV (setting [7]).
Consider `NS(=O)(=O)c1ccc(CC[n+]2c(-c3ccccc3)cc(-c3ccccc3)cc2-c2ccccc2)cc1` [Compound 68], for which the inhibition constant (Ki) was 419 nM on hCA II (setting [4]), 270000 nM at hCA I (setting [5]), 64 to 135 nM on hCA IX and 95 nM on hCA IX (setting [6]).
For `Cc1cc(-c2ccccc2)[n+](-c2ccc(S(=O)(=O)Nc3nnc(S(N)(=O)=O)s3)cc2)c(-c2ccccc2)c1` [Compound 86], the Ki on hCA II (Table 3, human (cloned) isozymes, esterase assay method, read-out: KI hCA II) is 4.78 nM; on hCA II (read-out: KI against CA II), 3.13 to 5.96 nM; on hCA IX, 12 to 35 nM; at hCA IX (read-out: KI hCA IX, Table 3, catalytic domain of the human, cloned isozyme, CO2 hydrase assay method), 12 nM.
As to `NS(=O)(=O)c1ccc(S(=O)(=O)Nc2cccc3c(Cl)c[nH]c23)cc1` [indisulam, reference compound], the inhibitory constant (Ki) at bCA IV (setting [7]) worked out at 65 nM; on bCA IV (Table 3, from bovine lung microsomes, esterase assay method), 65 nM.
